ChEMBL document CHEMBL1201862, “PubChem BioAssay data set” (2004)
Activity calls are given as the source filed them.

Assays:
[1] = A2780 cell killing – plate reader, dry powder samples, cytotoxicity control, dose response (AID 743046); format: functional, cell-based
[2] = OVCAR8 cell viability loss – plate reader, dry powder samples, PAX8 project, dose response (AID 743197); format: functional, cell-based; conditions: OVCAR-8
Mu-type opioid receptor [3] = target: T1, Mu-type opioid receptor (Homo sapiens, UniProt P35372); format: functional, cell-based;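 as to EC50: U2OS cells with beta-arrestin recruitment to OPRM1 by beta-gal complementation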
T1 sequence (P35372 whole entry): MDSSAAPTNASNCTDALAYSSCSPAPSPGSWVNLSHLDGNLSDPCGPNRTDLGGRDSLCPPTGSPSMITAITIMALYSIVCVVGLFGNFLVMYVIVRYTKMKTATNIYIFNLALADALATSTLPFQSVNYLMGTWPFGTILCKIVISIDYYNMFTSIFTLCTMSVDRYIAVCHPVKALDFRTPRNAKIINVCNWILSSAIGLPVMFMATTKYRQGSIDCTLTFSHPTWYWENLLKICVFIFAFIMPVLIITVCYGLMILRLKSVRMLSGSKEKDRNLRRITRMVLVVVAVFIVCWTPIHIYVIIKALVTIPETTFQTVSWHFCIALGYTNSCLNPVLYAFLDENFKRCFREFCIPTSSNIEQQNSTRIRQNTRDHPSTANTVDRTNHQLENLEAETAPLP

[4] = target: 5-hydroxytryptamine receptor 2A (Mus musculus, UniProt P35363); format: functional, cell-based;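 also: CHO-K1 cells with tagged receptor and beta-arrestin; agonist potency measured as compound-induced activation of the receptor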
[5] = target: Arf-GAP with SH3 domain, ANK repeat and PH domain-containing protein 1 (Homo sapiens, UniProt Q9ULH1); format: functional;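 also: biochemical fluorescence polarization dose–response screen measuring inhibition of ASAP1; ASAP1 GAP domain stimulating GTP hydrolysis by truncated human ARF1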
Chain of Arf-GAP with SH3 domain, ANK repeat and PH domain-containing protein 1 (Q9ULH1 whole entry, the tested form may be a part): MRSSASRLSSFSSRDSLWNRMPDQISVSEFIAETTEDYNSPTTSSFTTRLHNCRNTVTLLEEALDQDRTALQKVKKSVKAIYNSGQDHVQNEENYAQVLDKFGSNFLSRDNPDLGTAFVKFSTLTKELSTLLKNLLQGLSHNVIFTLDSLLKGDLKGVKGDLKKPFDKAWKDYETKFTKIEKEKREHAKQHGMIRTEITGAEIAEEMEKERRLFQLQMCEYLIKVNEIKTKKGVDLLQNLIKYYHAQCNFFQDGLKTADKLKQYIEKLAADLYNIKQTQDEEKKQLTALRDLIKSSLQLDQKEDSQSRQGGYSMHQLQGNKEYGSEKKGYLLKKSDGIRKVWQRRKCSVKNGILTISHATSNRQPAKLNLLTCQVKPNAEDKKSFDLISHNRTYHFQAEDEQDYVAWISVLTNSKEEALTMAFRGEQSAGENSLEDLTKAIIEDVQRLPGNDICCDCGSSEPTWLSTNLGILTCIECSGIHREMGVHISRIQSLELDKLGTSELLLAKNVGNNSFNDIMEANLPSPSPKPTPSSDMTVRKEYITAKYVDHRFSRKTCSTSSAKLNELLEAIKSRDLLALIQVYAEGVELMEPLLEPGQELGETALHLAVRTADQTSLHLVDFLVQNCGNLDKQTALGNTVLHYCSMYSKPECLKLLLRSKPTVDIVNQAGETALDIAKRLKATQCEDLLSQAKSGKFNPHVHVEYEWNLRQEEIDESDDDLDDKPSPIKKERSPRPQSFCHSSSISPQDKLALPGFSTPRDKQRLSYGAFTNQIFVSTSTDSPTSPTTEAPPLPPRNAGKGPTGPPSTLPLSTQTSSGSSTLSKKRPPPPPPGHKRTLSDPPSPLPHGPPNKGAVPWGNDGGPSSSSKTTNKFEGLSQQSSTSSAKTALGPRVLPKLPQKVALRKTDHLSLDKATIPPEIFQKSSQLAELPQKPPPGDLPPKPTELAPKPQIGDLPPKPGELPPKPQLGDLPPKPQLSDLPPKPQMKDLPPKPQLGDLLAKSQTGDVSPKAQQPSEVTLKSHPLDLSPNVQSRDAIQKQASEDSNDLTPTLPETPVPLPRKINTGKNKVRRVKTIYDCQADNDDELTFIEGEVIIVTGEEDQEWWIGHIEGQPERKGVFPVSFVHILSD

HEK293 [6] = test: inhibition of NOD1-driven NF-kB reporter – cell-based, luminescence, uHTS, primary screen (AID 1578); format: functional; conditions: Homo sapiens
HEK293 [7] = test: cells; format: functional, cell-based; conditions: Homo sapiens
HEK293 [8] = test: cells; format: functional, cell-based; conditions: Homo sapiens; remark: listed apart in the source
[9] = target: Nucleotide-binding oligomerization domain-containing protein 2 (Homo sapiens, UniProt Q9HC29); test: inhibition of NOD2-driven NF-kB reporter – cell-based, luminescence, uHTS, HEK293 (AID 1566); format: functional
Chain of Nucleotide-binding oligomerization domain-containing protein 2 (Q9HC29 whole entry, the tested form may be a part): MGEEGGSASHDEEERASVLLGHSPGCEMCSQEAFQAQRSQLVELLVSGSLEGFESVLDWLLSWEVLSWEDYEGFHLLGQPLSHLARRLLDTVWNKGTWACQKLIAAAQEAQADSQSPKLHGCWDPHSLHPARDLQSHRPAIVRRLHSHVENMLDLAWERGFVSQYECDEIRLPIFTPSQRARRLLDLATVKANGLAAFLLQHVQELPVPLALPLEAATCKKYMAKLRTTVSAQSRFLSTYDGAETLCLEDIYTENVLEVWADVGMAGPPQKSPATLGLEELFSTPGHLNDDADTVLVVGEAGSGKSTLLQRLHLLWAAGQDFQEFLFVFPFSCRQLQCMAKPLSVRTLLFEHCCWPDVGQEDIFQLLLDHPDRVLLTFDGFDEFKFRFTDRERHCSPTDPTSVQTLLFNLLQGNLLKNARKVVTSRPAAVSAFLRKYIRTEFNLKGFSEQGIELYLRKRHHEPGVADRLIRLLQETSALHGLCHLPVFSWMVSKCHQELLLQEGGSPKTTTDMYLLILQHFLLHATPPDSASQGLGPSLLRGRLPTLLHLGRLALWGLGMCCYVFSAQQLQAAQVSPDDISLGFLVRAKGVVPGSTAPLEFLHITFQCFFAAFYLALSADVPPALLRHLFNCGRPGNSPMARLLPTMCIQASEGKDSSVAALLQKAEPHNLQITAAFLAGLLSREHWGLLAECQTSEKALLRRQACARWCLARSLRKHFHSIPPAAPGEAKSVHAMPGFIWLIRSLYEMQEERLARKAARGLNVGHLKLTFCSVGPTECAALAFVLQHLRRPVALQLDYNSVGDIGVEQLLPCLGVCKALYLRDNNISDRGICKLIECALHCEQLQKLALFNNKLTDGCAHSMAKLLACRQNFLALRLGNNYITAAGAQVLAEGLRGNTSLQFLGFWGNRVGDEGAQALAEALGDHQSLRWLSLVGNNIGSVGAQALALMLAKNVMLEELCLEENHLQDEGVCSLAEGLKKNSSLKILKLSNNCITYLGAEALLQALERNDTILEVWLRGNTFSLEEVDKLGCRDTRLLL

HEK293 [10] = test: NOD2 signaling inhibitors in MDP-stimulated cells, cell-based, uHTS, luminescence (AID 2001); format: functional; conditions: Homo sapiens
HEK293 [11] = test: cells; format: functional, cell-based; conditions: Homo sapiens; remark: listed apart in the source
Interleukin-8 [12] = target: T2, Interleukin-8 (Homo sapiens, UniProt P10145); test: Dose Response confirmation of uHTS small molecule hits for cystic fibrosis induced NFkb Inhibitors in a TNFa-induced IL8 counterscreen.; format: functional; conditions: read-out: IC50_Mean
T2 sequence (P10145 whole entry): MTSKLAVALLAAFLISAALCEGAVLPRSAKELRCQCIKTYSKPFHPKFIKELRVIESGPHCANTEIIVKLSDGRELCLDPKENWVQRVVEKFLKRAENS

Interleukin-8 [13] = target: T2, Interleukin-8; test: Dose Response confirmation of uHTS small molecule hits for cystic fibrosis induced NFkb Inhibitors in a PAF-induced IL8 counterscreen.; format: functional; conditions: read-out: IC50_Mean
[14] = target: ATP-dependent translocase ABCB1 (Homo sapiens, UniProt P08183); test: inhibition of P-gp mediated JC-1 efflux – Jurkat-DNR cells, flow cytometry, dose response (AID 1689); format: functional
[15] = target: Disintegrin and metalloproteinase domain-containing protein 17 (Homo sapiens, UniProt P78536); test: exosite inhibitors of ADAM17, dose response, biochemical (AID 743260)
[16] = inhibition of ADAM10 peptide cleavage – biochemical, FRET peptide substrate, recombinant human ADAM10, selectivity assay for ADAM17 exosite inhibitor project, dose response (AID 743259);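 also: ADAM10 enzyme cleaving a FRET peptide substrate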
fMet-Leu-Phe receptor = fMet-Leu-Phe receptor (Homo sapiens, UniProt P21462); test: formyl peptide receptor binders – dose response (AID 519); format: functional
Chain of fMet-Leu-Phe receptor (P21462 whole entry): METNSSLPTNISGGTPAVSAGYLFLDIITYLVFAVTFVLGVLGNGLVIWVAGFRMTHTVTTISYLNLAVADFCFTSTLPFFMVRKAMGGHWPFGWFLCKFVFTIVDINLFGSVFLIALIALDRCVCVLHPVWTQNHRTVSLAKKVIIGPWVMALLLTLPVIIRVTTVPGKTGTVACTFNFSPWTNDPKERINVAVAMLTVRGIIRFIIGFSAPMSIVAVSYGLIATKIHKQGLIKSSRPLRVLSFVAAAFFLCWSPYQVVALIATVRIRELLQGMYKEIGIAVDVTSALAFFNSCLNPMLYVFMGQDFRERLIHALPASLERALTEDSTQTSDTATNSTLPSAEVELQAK

cells = format: functional, cell-based
[17] = target: T3, Nuclear receptor subfamily 0 group B member 1 (Homo sapiens, UniProt P51843); format: functional, cell-based;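 also: HEK293T cells transfected with SF-1 and DAX-1 plus StAR promoter luciferase reporter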
T3 sequence (P51843 whole entry): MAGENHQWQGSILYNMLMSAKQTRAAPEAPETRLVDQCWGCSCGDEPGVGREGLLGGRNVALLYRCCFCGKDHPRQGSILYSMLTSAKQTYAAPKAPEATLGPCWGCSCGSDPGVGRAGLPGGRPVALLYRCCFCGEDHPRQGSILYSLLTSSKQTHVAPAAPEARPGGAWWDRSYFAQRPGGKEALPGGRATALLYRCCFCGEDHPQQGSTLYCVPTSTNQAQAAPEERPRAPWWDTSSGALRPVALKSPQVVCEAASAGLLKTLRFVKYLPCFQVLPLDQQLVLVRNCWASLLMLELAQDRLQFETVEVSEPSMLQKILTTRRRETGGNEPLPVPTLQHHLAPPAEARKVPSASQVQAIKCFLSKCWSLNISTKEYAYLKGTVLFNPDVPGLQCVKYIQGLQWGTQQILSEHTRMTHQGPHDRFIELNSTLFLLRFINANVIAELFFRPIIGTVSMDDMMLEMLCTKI

[18] = blockers of bursicon-stimulated LGR2 cAMP reporter – cell-based, HEK293, CRE-luciferase reporter, cherry pick, set 2, dose response (AID 743343); format: functional;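 also: transfected cells were stimulated with diluted bursicon conditioned medium after compound addition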
[19] = blockade of melanocortin 4 receptor signaling – cell-based, plate reader, cherry pick, counter-screen for LGR2 antagonist project, dose response (AID 743444); format: functional;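 also: transfected HEK 293 cells stimulated with alpha-MSH peptide; potency of inhibitors of the alpha-MSH evoked signal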
[20] = viability loss in HEK293 cells – cell-based, plate reader, cherry-picked samples, cytotoxicity control, dose response (AID 743446); format: functional
[21] = target: Kappa-type opioid receptor (Homo sapiens, UniProt P41145); test: Late-stage fluorescence-based cell-based dose response assay for antagonists of kappa opioid receptor 1 (OPRK1).; format: functional
Chain of Kappa-type opioid receptor (P41145 whole entry): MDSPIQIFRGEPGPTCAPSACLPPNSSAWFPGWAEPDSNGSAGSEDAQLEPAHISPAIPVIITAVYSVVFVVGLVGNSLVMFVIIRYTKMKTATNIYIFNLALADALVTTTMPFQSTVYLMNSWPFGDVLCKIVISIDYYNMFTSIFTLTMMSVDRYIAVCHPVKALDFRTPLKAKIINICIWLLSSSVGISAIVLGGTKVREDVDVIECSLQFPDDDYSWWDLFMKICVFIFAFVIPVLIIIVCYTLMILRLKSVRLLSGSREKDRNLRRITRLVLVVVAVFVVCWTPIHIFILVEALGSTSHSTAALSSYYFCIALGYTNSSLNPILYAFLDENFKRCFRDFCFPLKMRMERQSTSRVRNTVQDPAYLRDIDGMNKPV

Mu-type opioid receptor [22] = target: T1, Mu-type opioid receptor; test: Late-stage results from the probe development effort to identify antagonists of OPRK1: luminescence-based cell-based dose response OPRM1 counterscreen, Set 2.; format: functional
[23] = target: Delta-type opioid receptor (Homo sapiens, UniProt P41143); test: Late-stage results from the probe development effort to identify antagonists of OPRK1: fluorescence-based cell-based dose response OPRD1 counterscreen, Set 2.; format: functional
Chain of Delta-type opioid receptor (P41143 whole entry): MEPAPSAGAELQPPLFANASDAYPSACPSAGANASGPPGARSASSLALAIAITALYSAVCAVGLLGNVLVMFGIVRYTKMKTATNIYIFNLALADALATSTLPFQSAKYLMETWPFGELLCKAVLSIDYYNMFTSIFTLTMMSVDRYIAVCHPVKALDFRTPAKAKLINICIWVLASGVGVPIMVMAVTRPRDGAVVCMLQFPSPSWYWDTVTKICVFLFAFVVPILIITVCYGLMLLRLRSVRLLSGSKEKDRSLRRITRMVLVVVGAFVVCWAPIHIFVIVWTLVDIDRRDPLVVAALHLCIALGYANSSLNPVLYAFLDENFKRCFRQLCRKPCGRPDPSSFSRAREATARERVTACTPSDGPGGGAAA

[24] = target: Sphingosine 1-phosphate receptor 1 (Homo sapiens, UniProt P21453); test: Late-stage counterscreen for antagonists of kappa opioid receptor 1 (OPRK1): fluorescence-based cell-based dose response assay to identify antagonists of Sphingosine 1-Phosphate Receptor 1 (S1P1).; format: functional
Chain of Sphingosine 1-phosphate receptor 1 (P21453 whole entry): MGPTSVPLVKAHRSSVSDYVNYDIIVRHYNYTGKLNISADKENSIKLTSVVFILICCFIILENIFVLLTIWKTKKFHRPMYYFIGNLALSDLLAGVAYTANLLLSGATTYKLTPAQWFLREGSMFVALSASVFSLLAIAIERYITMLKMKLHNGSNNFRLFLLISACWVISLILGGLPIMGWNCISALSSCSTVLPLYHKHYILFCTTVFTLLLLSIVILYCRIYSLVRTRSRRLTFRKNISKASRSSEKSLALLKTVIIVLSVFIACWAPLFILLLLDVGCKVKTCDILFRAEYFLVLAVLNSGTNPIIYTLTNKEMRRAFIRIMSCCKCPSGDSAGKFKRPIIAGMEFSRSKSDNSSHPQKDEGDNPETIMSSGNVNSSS

[25] = bead-based luminescence quenchers, dual-tagged ARNT – biochemical, AlphaScreen, cherry-pick, artefact control for ARNT-TACC3 interaction inhibitor project, dose response (AID 651705); format: functional;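 also: AlphaScreen bead proximity signal that flags compounds interfering with the detection technology; potency reflects signal decrease which marks the compound as an assay artifact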
[26] = inhibitors of EBV LMP1 NF-kappaB signaling – cell-based, luciferase reporter, luminescence, dry powder, set 2, dose response (AID 624376); format: functional
[27] = activation of miR-122 Renilla sensor silencing – cell-based, Huh7 psiCHECK-miR122, Renilla luciferase, cherry-picked, dose response (AID 651956); format: functional;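 also: huh7 hepatoma cells stably carrying a psiCHECK-2 miR-122 sensor plasmid; renilla luciferase signal reporting endogenous miR-122 activity after 48 h compound exposure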
[28] = viability loss in LCL cells – cell-based, plate reader, dry powder, set 2, cytotoxicity control, dose response (AID 624367); format: functional
[29] = general mammalian cell viability loss – inhibitor set, cherry-pick, set 2, cytotoxicity control for miR-122 modulator project, dose response (AID 720697); format: functional, cell-based
[30] = target: T4, Low molecular weight phosphotyrosine protein phosphatase (Homo sapiens, UniProt P24666); format: functional; conditions: read-out: IC50_Mean
T4 sequence (P24666 whole entry): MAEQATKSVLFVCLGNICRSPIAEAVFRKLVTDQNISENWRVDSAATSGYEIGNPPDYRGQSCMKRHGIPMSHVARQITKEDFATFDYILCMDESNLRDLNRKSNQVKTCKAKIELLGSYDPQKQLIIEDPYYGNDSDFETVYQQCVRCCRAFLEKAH

[31] = target: T4, Low molecular weight phosphotyrosine protein phosphatase; format: functional; conditions: read-out: IC50_Mean; remark: listed apart in the source
Beta-lactamase [32] = target: Beta-lactamase (Salmonella choleraesuis (strain SC-B67), UniProt Q5J463); test: Epi-absorbance-based counterscreen for selective VIM-2 inhibitors: dose response biochemical high throughput screening assay to identify inhibitors of TEM-1 serine-beta-lactamase.
Chain of Beta-lactamase (Salmonella choleraesuis (strain SC-B67), UniProt Q5J463) (Q5J463 whole entry): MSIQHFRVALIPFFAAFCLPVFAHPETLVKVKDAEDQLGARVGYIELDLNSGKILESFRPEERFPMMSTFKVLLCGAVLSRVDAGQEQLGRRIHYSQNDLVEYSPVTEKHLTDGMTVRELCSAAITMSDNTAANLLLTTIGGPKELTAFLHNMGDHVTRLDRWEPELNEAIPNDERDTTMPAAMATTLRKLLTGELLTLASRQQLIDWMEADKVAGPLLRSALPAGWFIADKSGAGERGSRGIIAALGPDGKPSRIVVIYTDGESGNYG

Leucine aminopeptidase = target: T5, Leucine aminopeptidase (Plasmodium falciparum 3D7, UniProt Q8IL11); test: P. falciparum M17LAP inhibitors, primary screen, biochemical, fluorogenic H-Leu-NHMec substrate, 1536-well (AID 1619); format: functional
T5 sequence (Q8IL11 whole entry): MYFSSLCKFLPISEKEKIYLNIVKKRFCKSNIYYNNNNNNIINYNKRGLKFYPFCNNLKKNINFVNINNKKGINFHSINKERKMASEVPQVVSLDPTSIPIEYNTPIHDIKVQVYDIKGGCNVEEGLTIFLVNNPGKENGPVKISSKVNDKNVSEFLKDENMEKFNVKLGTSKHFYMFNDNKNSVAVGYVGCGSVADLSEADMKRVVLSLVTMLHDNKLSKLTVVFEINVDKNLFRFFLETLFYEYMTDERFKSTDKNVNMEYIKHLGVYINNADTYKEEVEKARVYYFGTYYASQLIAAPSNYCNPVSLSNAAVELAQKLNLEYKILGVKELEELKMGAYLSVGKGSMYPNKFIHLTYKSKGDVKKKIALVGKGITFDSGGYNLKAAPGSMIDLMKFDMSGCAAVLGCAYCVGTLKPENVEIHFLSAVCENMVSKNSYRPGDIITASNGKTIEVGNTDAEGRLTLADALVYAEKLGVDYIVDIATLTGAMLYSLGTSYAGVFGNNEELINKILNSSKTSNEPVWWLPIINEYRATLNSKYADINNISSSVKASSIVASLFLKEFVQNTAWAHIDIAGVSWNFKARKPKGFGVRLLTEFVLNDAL

Beta-lactamase [33] = target: T6, Beta-lactamase (Pseudomonas aeruginosa, UniProt Q79MP6); test: inhibition of IMP-1 beta-lactamase activity – biochemical, epi-absorbance, selectivity assay for VIM-2 inhibitor project, dose response (AID 1920)
T6 sequence (Q79MP6 whole entry): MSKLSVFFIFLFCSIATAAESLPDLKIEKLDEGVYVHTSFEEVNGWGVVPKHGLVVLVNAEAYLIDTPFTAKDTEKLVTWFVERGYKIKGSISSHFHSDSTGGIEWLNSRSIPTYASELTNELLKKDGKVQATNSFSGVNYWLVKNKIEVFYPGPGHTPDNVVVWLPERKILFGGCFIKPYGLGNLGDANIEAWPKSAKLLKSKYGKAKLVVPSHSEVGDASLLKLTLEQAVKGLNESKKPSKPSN

Beta-lactamase [34] = target: T6, Beta-lactamase; test: […] counterscreen for selective VIM-2 inhibitors: dose response biochemical high throughput screening assay to identify inhibitors of IMP-1 metallo-beta-lactamase.
[35] = target: T7, Heat shock factor protein 1 (Mus musculus, UniProt P38532); test: enhancement of HSF1-driven luciferase signal – cell-based, NIH3T3, luminescence, dose retest, confirmation (AID 435004); format: functional;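 also: stress induced by proteasome inhibitor MG132 added 30 min after compound; luciferase reporter driven by HSF1 response element in NIH3T3 cells; actives raise luminescence as potentiators of the MG132 stress response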
T7 sequence (P38532 whole entry): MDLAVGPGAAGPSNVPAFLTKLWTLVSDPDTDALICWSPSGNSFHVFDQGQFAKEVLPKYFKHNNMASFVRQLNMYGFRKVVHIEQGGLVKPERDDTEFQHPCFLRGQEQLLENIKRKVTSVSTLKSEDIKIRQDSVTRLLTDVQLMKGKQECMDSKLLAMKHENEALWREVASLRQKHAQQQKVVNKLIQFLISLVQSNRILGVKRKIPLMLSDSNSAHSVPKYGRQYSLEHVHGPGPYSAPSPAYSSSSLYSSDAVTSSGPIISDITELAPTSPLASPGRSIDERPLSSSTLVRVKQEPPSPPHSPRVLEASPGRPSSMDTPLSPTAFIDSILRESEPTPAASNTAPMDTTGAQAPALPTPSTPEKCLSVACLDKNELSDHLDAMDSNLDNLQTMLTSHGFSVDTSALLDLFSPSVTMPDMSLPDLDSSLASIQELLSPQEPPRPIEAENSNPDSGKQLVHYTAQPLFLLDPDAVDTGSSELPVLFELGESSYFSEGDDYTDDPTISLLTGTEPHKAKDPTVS

COc1ccc(-c2cn(CC[C@H]3CC[C@@H](NC(=O)Cc4ccccn4)[C@@H](CO)O3)nn2)cc1
AC50 [1]: 315 nM (active)
AC50 [2]: > 70 µM (inactive)

O=C(C[n+]1cc(-c2ccccc2)n2c1CCC2)Nc1nc(-c2ccc(F)cc2)cs1
EC50 (Mu-type opioid receptor [3]): 92.5 µM (inactive)
EC50 [4]: 76.1 µM (inactive)

O=C(Cn1cncc1-c1ccc([N+](=O)[O-])cc1)Nc1cccc2ccccc12
IC50 [5]: 28.1 µM (inactive)

CCSc1nsc(NC(=O)Nc2cccc(C(C)=O)c2)n1
EC50 (HEK293 [6]): 4.27 µM (active)
IC50 (HEK293 [7]): 1.27 µM (active)
IC50 (HEK293 [8]): > 20 µM (inactive)
EC50 [9]: 6.47 µM (active)
IC50 (HEK293 [10]): 2.39 µM (active)
IC50 (HEK293 [11]): > 20 µM (inactive)
IC50 (Interleukin-8 [12]): 1.77 µM (active)
IC50 (Interleukin-8 [13]): 5.42 µM (active)

Cc1nc2cc(-c3cccc(F)c3)nn2c(N2CCN(C(=O)c3ccco3)CC2)c1C
EC50 [14]: 14.6 µM (inactive)

COC(=O)C1=C(c2cccc(OCc3ccccc3)c2)C[C@@H]2CC[C@H]1N2C(=O)NCCOc1ccc(OC)cc1
IC50 [15]: > 69.5 µM (inactive)
IC50 [16]: 12.1 µM (inactive)

COc1ccc(OC)c(NC(=O)C2C3CCC(C3=C(C)C)C2C(=O)O)c1 (stereo not drawn)
Ki (fMet-Leu-Phe receptor): > 66.7 µM (inactive)

Cc1ccnc(NC(=O)c2cccc(S(=O)(=O)N3CCN(c4ccccc4)CC3)c2)c1
IC50 (cells): > 67.5 µM (inactive)
IC50 [17]: > 67.5 µM (inactive)
AC50 [18]: 12.4 µM (active)
AC50 [19]: 14.6 µM (active)
AC50 [20]: > 52 µM (inactive)

CCOC(=O)c1ccc(N2CC3CCCCN3C2c2cccc(OC)c2O)cc1 (stereo not drawn)
IC50 [21]: 6.85 µM (active)
IC50 (Mu-type opioid receptor [22]): > 50 µM (inactive)
IC50 [23]: > 50 µM (inactive)
IC50 [24]: > 50 µM (inactive)

O=C(Nc1ccc(F)cc1)c1nc[nH]c1C(=O)O
AC50 [25]: 105 µM (active)

Cc1noc(C)c1S(=O)(=O)Nc1ccc2c(c1)C(=O)N([C@@H](C)CO)C[C@H](C)[C@@H](CN(C)Cc1ccc(C(F)(F)F)cc1)OCCCC[C@@H](C)O2
AbsAC35 [26]: 101.91 µM

C[C@H](CO)N1C[C@H](C)[C@H](CN(C)C(=O)NC2CCCCC2)Oc2cc(/C=C/c3ccccc3)ccc2S1(=O)=O
AC50 [27]: 19.1 µM (active)
AbsAC35 [28]: 53.47 µM
AC50 [29]: 15.9 µM (active)

COCCNc1nc(NCc2cccc(OC)c2OC)c2sccc2n1
IC50 [30]: 12.8 µM (active)
IC50 [31]: 8.2 µM (active)

CC(C)(C)c1ccc(COc2ccsc2C(=O)O)cc1
IC50 (Beta-lactamase [32]): > 59.6 µM (inactive)
IC50 (Leucine aminopeptidase): 11.5 µM (active)
IC50 (Beta-lactamase [33]): > 59.6 µM (inactive)
IC50 (Beta-lactamase [34]): > 59.6 µM (inactive)
EC50 [35]: 137 µM (active)
